# Data taken from paper PMC6695598, “The Development of Tetrazole Derivatives as Protein Arginine Methyltransferase I (PRMT I) Inhibitors” (International Journal of Molecular Sciences, 2019).
# Where a name gives a salt, the structure may show the parent alone.
# Experiments:
# [1] = target: PRMT1 (Homo sapiens, UniProt Q99873); assay: radioactive PRMT1 methylation inhibition assay ([3H]-SAM, biotinylated histone H4 peptide); assay type: biochemical; details: for inhibition at 10 µM / % Inhibition of PRMT1 (at 10 μM): 10 μM compound, initial screening
# Sequence of PRMT1 (Q99873 whole entry): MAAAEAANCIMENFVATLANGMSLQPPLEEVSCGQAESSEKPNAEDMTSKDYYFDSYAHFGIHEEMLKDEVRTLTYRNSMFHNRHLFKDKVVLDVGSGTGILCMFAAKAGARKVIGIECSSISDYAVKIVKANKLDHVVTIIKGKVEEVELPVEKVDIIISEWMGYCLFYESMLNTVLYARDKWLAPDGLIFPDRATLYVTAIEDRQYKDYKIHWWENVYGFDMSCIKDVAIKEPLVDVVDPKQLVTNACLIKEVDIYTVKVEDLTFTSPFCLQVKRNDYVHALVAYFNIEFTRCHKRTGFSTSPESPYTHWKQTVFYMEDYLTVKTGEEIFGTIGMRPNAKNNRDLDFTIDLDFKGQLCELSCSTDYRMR
# Procedure: A series of 1,5-substituded tetrazole derivatives were synthesized to investigate the structure-activity relationship (SAR) of PRMT1 inhibitors (Table 1). […] The chemical modification of these compounds is mainly focused on the substituted benzene ring. The initial screening of these compounds was carried out using the radioactive PRMT1 methylation inhibition assay, which measured the amount of methyl groups that transferred from [^3H]-SAM to a biotinylated histone H4 peptide (ac- […](Biotin)). […] In the second step, the Group II compounds were designed and synthesized by extending the ethylenediamine side chain to propylenediamine.
# (§1) The enzyme inhibitory activities were measured by the radioisotope assay in ShangHai Chempartner Co. Ltd. according to the standard protocol. The similar procedure was recently performed in the publication The radioactive methylation assay was performed in 1× assay buffer (modified Tris buffer) system containing enzyme (PRMT1/5), peptide and [^3H]-SAM solution and compounds on the assay plate. […] Afterwards, the reaction was stopped with addition of 5 μL cold SAM solution to per well. Then, 25 μL of volume per well was transferred to Flashplate from assay plate and incubated for 1 h minimum at room temperature. Finally, the Flashplate was washed with dH2O and 0.1% Tween-20 three times and then reading plate in Mi crobeta using program ^3H-Flashplate. The data was analyzed in GraphPad Prism 5 to obtain IC50 values.
# [2] = target: PRMT5 (Homo sapiens, UniProt O14744); assay: radioactive methylation assay, PRMT5 selectivity; assay type: biochemical
# Sequence of PRMT5 (O14744 whole entry, species assumed): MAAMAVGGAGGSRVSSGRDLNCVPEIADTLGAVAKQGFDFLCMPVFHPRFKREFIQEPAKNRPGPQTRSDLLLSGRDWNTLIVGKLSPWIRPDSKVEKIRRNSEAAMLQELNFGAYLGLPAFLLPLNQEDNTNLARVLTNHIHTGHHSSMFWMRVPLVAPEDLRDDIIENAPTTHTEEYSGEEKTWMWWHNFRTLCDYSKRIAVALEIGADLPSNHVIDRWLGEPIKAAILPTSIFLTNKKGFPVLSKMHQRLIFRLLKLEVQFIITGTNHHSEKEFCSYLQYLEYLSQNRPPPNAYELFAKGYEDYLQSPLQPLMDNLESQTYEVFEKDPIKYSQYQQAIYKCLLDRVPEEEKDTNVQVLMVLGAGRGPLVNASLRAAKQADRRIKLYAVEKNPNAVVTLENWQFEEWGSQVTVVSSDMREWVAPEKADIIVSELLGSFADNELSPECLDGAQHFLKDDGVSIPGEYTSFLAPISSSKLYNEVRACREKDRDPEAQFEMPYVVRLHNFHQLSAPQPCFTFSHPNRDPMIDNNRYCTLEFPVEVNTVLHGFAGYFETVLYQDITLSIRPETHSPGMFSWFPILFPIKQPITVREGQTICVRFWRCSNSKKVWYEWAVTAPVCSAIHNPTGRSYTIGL
# Sequence of PRMT5 (Q9BQA1 whole entry partner, species assumed): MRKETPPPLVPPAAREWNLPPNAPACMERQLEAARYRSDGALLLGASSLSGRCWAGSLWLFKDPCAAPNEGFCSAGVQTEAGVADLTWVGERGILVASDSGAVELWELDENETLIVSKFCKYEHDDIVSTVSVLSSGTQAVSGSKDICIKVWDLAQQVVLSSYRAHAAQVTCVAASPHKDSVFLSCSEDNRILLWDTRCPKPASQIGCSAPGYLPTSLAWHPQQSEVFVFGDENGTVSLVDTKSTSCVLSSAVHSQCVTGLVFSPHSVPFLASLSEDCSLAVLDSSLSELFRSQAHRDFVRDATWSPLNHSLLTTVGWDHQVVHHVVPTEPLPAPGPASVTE
# Procedure: as §1
melting point [°C],inhibition at 10 µM [1] [%],Compound,other results
183.1 to 183.9,–,"CC(C)Oc1ccc(-n2nnnc2CNCCN)cc1 (as salt: hydrochloride) [18d, N-(1-(4-Isopropoxyphenyl)-1H-tetrazol-5-yl-methyl)-ethylenediaminehydrochloride]",–
183.2 to 183.9,–,"CC(C)Oc1ccc(-n2nnnc2CN2CCN(CCN)CC2)cc1 (as salt: hydrochloride) [18e, N-aminoethyl-N’-(1-(4-isopropoxyphenyl)-1H-tetrazol-5-yl-methyl)-piperazinehydrochloride]",–
188.7 to 190,–,"CNCCN(C)Cc1nnnn1-c1ccc(OCC(F)(F)F)cc1.Cl [16c, N,N’-Dimethyl-N’-(1-(4-(2,2,2-trifluoroethoxy)phenyl)-1H-tetrazol-5-yl-methyl)ethylenediamine hydrochloride]",IC50 [2]: > 100 µM
–,3,"CNCCN(C)Cc1nnnn1-c1cccc(OCC(F)(F)F)c1 [16d, N,N’-Dimethyl-N’-(1-(3-(2,2,2-trifluoroethoxy)phenyl)-1H-tetrazol-5-ylmethyl)ethylenediamine hydrochloride]",–
186.5 to 187.7,50,"CC(C)Oc1ccc(-n2nnnc2CN(C)CCN)cc1.Cl [18a, N-(1-(4-Isopropoxyphenyl)-1H-tetrazol-5-yl-methyl)-N-methyl-ethylenediamine hydrochloride]",IC50 [1]: 10 µM; IC50 [2]: > 100 µM
–,15,"CC(C)Oc1ccc(-n2nnnc2CN(C)CCCN)cc1 [18b, N-(1-(4-Isopropoxyphenyl)-1H-tetrazol-5-yl-methyl)-N-methyl-1,3-propylenediamine hydrochloride]",–
179.7 to 180.7,10,"CNCCNCc1nnnn1-c1ccc(OC(C)C)cc1.Cl [18c, N-Methyl-N’-(1-(4-isopropoxyphenyl)-1H-tetrazol-5-yl-methyl)-ethylenediamine hydrochloride]",–
–,18,"CC(C)Oc1ccc(-n2nnnc2CNCCN)cc1 [18d, N-(1-(4-Isopropoxyphenyl)-1H-tetrazol-5-yl-methyl)-ethylenediaminehydrochloride]",–

# The remaining lines, values behind:
Compound,melting point [°C],inhibition at 10 µM [1] [%],other results
"CNCCN(C)Cc1nnnn1-c1cccc(OC(C)C)c1 [9b, N,N’-Dimethyl-N’-(1-(3-isopropoxyphenyl)-1H-tetrazol-5-yl-methyl)ethylenediamine hydrochloride]",–,0,–
"CNCCN(C)Cc1nnnn1-c1ccc(OC)cc1.Cl [9c, N,N’-Dimethyl-N’-(1-(4-methoxyphenyl)-1H-tetrazol-5-yl-methyl)ethylenediamine hydrochloride]",163.2 to 163.6,3,–
"CNCCN(C)Cc1nnnn1-c1cccc(OC)c1.Cl [9d, N,N’-Dimethyl-N’-(1-(3-methoxyphenyl)-1H-tetrazol-5-yl-methyl)ethylenediamine hydrochloride]",185.6 to 186.4,7,–
"CNCCN(C)Cc1nnnn1-c1cccc(OC(F)(F)F)c1.Cl [9e, N,N’-Dimethyl-N’-(1-(3-trifluoromethoxyphenyl)-1H-tetrazol-5-yl-methyl)ethylenediamine hydrochloride]",185.6 to 186.4,-17,–
"CNCCN(C)Cc1nnnn1-c1ccc(OC(F)(F)F)cc1.Cl [9f, N,N’-Dimethyl-N’-(1-(4-trifluoromethoxyphenyl)-1H-tetrazol-5-yl-methyl)ethylenediamine hydrochloride]",194.3 to 195.2,–,IC50 [2]: > 100 µM
"CNCCCN(C)Cc1nnnn1-c1ccc(OC(C)C)cc1 [10a, N,N’-Dimethyl-N’-(1-(4-isopropoxyphenyl)-1H-tetrazol-5-yl-methyl)-1,3-propylenediamine hydrochloride]",–,23,–
"CNCCCN(C)Cc1nnnn1-c1cccc(OC(C)C)c1 [10b, N,N’-Dimethyl-N’-(1-(3-isopropoxyphenyl)-1H-tetrazol-5-yl-methyl)-1,3-propylenediamine hydrochloride]",–,0,–
"CNCCCN(C)Cc1nnnn1-c1ccc(OC)cc1.Cl [10c, N,N’-Dimethyl-N’-(1-(4-methoxyphenyl)-1H-tetrazol-5-yl-methyl)-1,3-propylenediamine hydrochloride]",188.2 to 190.1,-6,–
"CNCCCN(C)Cc1nnnn1-c1cccc(OC)c1 [10d, N,N’-Dimethyl-N’-(1-(3-methoxyphenyl)-1H-tetrazol-5-yl-methyl)-1,3-propylenediamine hydrochloride]",–,-14,–
"CNCCCN(C)Cc1nnnn1-c1cccc(OC(F)(F)F)c1 [10e, N,N’-Dimethyl-N’-(1-(3-trifluoromethoxyphenyl)-1H-tetrazol-5-yl-methyl)-1,3-propylenediamine hydrochloride]",–,-12,–
"CC(C)Oc1ccc(-n2nnnc2CN2CCN(CCN)CC2)cc1 [18e, N-aminoethyl-N’-(1-(4-isopropoxyphenyl)-1H-tetrazol-5-yl-methyl)-piperazinehydrochloride]",–,–,IC50 [2]: > 100 µM
"N,N’-Dimethyl-N’-(1-(3-methylsulfonylphenyl)-1H-tetrazol-5-yl-methyl)-1,3-propylenediamine hydrochloride [16e]",–,–,% Inhibition of PRMT1 (at 10 μM) [1]: −4%
"N,N’-Dimethyl-N’-(1-(3-methylsulfonylphenyl)-1H-tetrazol-5-yl-methyl)ethylenediamine hydrochloride [16b]",–,–,% Inhibition of PRMT1 (at 10 μM) [1]: 13%
"N,N’-Dimethyl-N’-(1-(4-methylsulfonylphenyl)-1H-tetrazol-5-yl-methyl)ethylenediamine hydrochloride [16a]",–,–,% Inhibition of PRMT1 (at 10 μM) [1]: 23%
N-Guanidino-N’-(1-(4-isopropoxyphenyl)-1H-tetrazol-5-yl-methyl)-N’-methyl-ethylenediamine hydrochloride [compound 20],–,–,% Inhibition of PRMT1 (at 10 μM) [1]: −7%
